Patent publication US8138174B2, “Compounds with a combination of cannabinoid CB1 antagonism and serotonin reuptake inhibition” (Solvay Pharmaceuticals B.V., priority 2007, dated 2012)
Where two headings read alike, the source gives them in different places.

Tests used:
serotonin reuptake sites = target: T1, serotonin reuptake sites (Rattus norvegicus, UniProt P31652); test: In vitro affinity for serotonin reuptake sites ([3H]-paroxetine binding, Habert 1985)
T1 construct: from tissue

[1] = target: human cannabinoid CB1 receptor (Homo sapiens, UniProt P21554); test: In vitro affinity for human cannabinoid CB1 receptors ([3H]CP-55,940 binding, CHO cell membranes); conditions: radioligand [3H]-CP-55,940; membranes of CHO cells stably transfected with human CB1 receptor; read-out: CB1 receptor binding [3H]-CP-55,940 pKi (converted)
human cannabinoid CB1 receptor, sequence (P21554 whole entry): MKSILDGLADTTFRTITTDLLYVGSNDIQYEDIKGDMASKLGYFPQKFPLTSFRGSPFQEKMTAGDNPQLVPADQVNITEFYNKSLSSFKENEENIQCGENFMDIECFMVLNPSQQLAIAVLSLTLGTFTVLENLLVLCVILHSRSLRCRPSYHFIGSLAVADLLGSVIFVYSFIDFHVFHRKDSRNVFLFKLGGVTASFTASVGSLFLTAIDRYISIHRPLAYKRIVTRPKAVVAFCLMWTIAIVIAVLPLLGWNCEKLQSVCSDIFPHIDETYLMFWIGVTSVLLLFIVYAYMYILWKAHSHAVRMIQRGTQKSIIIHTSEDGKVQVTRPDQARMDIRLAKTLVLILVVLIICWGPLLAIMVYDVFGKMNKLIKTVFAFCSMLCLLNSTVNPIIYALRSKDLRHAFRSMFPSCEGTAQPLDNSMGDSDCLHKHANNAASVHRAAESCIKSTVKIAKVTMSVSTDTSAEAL
Protocol: In vitro affinity for human cannabinoid CB1 receptors
After incubation of a freshly prepared cell membrane preparation with the [^3H]-ligand, with or without addition of compounds of the invention, separation of bound and free ligand is performed by filtration over glassfiber filters. Radioactivity on the filter is measured by liquid scintillation counting.

[2] = radioligand [3H]-paroxetine, read-out: 5-HT reuptake binding [3H]-paroxetine pKi (converted)

T1 sequence (P31652 whole entry): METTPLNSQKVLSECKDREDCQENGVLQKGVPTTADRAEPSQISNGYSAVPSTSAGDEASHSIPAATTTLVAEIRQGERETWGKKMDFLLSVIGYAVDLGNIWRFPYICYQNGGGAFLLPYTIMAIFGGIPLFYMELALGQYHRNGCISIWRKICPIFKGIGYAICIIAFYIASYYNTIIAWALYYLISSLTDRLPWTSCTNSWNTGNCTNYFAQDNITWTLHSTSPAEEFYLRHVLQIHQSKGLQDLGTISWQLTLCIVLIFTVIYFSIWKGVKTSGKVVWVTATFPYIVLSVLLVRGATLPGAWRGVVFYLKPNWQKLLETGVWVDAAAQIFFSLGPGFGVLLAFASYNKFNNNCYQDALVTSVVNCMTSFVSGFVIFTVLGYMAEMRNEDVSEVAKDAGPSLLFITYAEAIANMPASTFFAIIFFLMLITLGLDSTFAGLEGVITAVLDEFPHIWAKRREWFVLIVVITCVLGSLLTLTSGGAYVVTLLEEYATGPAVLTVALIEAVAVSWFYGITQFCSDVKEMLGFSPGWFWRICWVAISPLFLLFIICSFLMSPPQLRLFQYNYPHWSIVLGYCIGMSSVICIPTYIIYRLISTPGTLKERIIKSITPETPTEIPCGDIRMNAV

CCc1c(C(=O)NCCCCCCC(=NOCCN)c2ccc(C(F)(F)F)cc2)nc(-c2ccccc2Cl)n1-c1ccc(Cl)cc1 (racemic) [Compound 2, 2-(2-Chlorophenyl)-1-(4-chlorophenyl)-5-ethyl-1H-imidazole-4-carboxylic acid [7-(2-amino-ethoxyimino)-7-[4-(trifluoromethyl)phenyl]heptyl]amide]
Ki (serotonin reuptake sites; [2]): 0.2 µM
Ki [1]: 0.0398 µM

NCCO/N=C(/CCCCCCN/C(=N/S(=O)(=O)c1ccc(Cl)cc1)N1CC(c2ccccc2)C(c2ccc(Cl)cc2)=N1)c1ccc(C(F)(F)F)cc1 (stereo not shown) [Compound 1]
affinity for 5-HT reuptake sites / serotonin reuptake inhibition (in words) (serotonin reuptake sites): as potent a serotonin reuptake inhibitor as fluoxetine
Ki (serotonin reuptake sites; [2]): 0.0158 µM
Ki [1]: 0.251 µM

CCc1c(C(=O)N2CCN(CCCCc3c[nH]c4ccc(F)cc34)CC2)nc(-c2ccccc2Cl)n1-c1ccc(Cl)cc1 [Compound 3, [2-(2-Chlorophenyl)-1-(4-chlorophenyl)-5-ethyl-1H-imidazole-4-yl] {4-[4-(5-flouro-1H-indol-3-yl)butyl]piperazin-1-yl}methanone]
Ki (serotonin reuptake sites; [2]): 0.02 µM
Ki [1]: 0.0316 µM

O=S(=O)(/N=C(/N1CCN(CCCCc2c[nH]c3ccc(F)cc23)CC1)N1CC(c2ccccc2)C(c2ccc(Cl)cc2)=N1)c1ccc(Cl)cc1 (stereo not shown) [Compound 4]
Ki (serotonin reuptake sites; [2]): 0.0251 µM
Ki [1]: 0.251 µM

CN=C(NS(=O)(=O)c1ccc(Cl)cc1)N1C[C@H](c2ccccc2)C(c2ccc(Cl)cc2)=N1 [SLV319]
Ki (serotonin reuptake sites; [2]): > 10 µM

CCc1c(C(=O)NN2CCCCC2)nc(-c2ccccc2Cl)n1-c1ccc(Cl)cc1 [WO 03/027076]
affinity for 5-HT reuptake sites / serotonin reuptake inhibition (in words) (serotonin reuptake sites): completely inactive
Ki (serotonin reuptake sites; read-out: 5-HT reuptake binding [3H]-paroxetine pKi (converted)): > 31.6 µM

CN(C)CCC=C1c2ccccc2CCc2ccccc21 [amitriptyline]
Ki [1]: > 10 µM

CN(C)CCCC1(c2ccc(F)cc2)OCc2cc(C#N)ccc21 (stereo not shown) [citalopram]
Ki [1]: > 10 µM

Fc1ccc2[nH]cc(CCCCN3CCNCC3)c2c1 [compound A]
Ki (serotonin reuptake sites): 0.00126 µM
Ki [1]: > 1 µM

CN(C)CCCN1c2ccccc2CCc2ccccc21 [imipramine]
Ki [1]: > 1 µM

c1ccc2c(CCC3CCNCC3)c[nH]c2c1 [indalpine]
5-HT reuptake binding [3H]-paroxetine pKi (serotonin reuptake sites; radioligand [3H]-paroxetine): 8.6
Ki [1]: > 1 µM

Fc1ccc([C@@H]2CCNC[C@H]2COc2ccc3c(c2)OCO3)cc1 [paroxetine]
Ki [1]: > 1 µM

Cc1c(C(=O)NN2CCCCC2)nn(-c2ccc(Cl)cc2Cl)c1-c1ccc(Cl)cc1 [rimonabant]
Ki (serotonin reuptake sites; [2]): 5.01 µM

CN[C@H]1CC[C@@H](c2ccc(Cl)c(Cl)c2)c2ccccc21 [sertraline]
Ki [1]: > 10 µM
